Measured values: the METLIN SMRT retention time set (Domingo-Almenara et al. 2019)

Assay: gradient 5% acetonitrile 3 min, to 50% in 2 min, to 85% in 15 min, held 3 min, 100 µL/min
Conditions: column: Zorbax Extend-C18 2.1 x 50 mm; eluents: water / acetonitrile, 0.1% formic acid
Procedure, shortened: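 Pure standards were analyzed in mixtures of ~100 molecules using HPLC coupled to a quadrupole time-of-flight mass spectrometer, in both positive and negative ionization mode. Separation used a Zorbax Extend-C18 column (2.1 × 50 mm, 1.8 μm) at 100 μL/min, with water and acetonitrile each containing 0.1% formic acid. Dead and dwell volumes were 40 μL and 900 μL, and data were collected over 3 months. Retention time was read from computationally picked adduct peaks, each inspected manually.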

| Compound | RP-LC retention time |
| --- | --- |
| O=C(NCCC1=CCCCC1)C1CCCN(c2nc3ccccc3n(Cc3ccccc3)c2=O)C1 (centres undefined) | 1310 s |
| Cc1ccsc1C(=O)NC1(c2nc(-c3cnccn3)no2)CCCCC1 | 806 s |
| Cc1nn2c(CNS(=O)(=O)c3ccc(Cl)cc3)c(-c3ccccc3)nc2s1 | 932 s |
| Cc1cc(OCC(=O)Nc2ccc(F)cc2)nc(N2CCN(c3ccccc3)CC2)n1 | 823 s |
| CCc1nn2c(CNC(=O)c3cccs3)c(-c3ccccc3)nc2s1 | 866 s |
| COc1ccc(-c2nnc(-c3ccc(Cl)c(S(=O)(=O)N(C)C)c3)o2)cc1OC | 904 s |
| Cc1cc(Cl)ccc1NC(=O)Cc1nnc(-c2ccc3ncccc3c2)o1 | 766 s |
| Cc1cccc2nnc(N3CCC(C(=O)NCc4ccc(N5CCCCC5)cc4)CC3)n12 | 558 s |
| CCCN(C)c1nccn2c(=O)n(CC(=O)Nc3ccc(C)cc3)nc12 | 683 s |
| Cc1ccccc1Cn1cc(-c2ccncc2)cc1C(=O)N1CCN(C2CCCCC2)CC1 | 586 s |
| Cn1nc(-c2nnc(-c3ccccc3)o2)c2c1CCN(S(=O)(=O)c1ccc(F)c(Cl)c1)C2 | 979 s |
| O=C(Nc1ccc(OCc2nnc(-c3ccccc3)o2)cc1)c1n[nH]c2c1CCCC2 | 886 s |
| COC(=O)c1ccccc1S(=O)(=O)Nc1ccc2c(c1)CCC(=O)N2C | 748 s |
| O=C(Nc1ccc(F)cc1F)c1ccc(N2C(=O)CCC2=O)cc1 | 671 s |
| CCCCN1CCN(C(=O)c2cc(-c3ccncc3)cn2Cc2ccccc2C)CC1 | 576 s |
| Cc1ccc2oc(-c3nnc(C(=O)NCCN4CCCCCC4)o3)c(C)c2c1 | 720 s |
| CCN1CCN(CC2CCN(S(=O)(=O)Cc3c(F)cccc3Cl)CC2)CC1 | 611 s |
| Cc1cccc(C)c1NC(=O)Cn1nc(N2CCC(C)CC2)c2ccccc2c1=O | 1240 s |
| CCC[C@H](NC(=O)/C(C#N)=C/c1cccc(Br)n1)c1ccccc1 | 684 s |
| CC(Oc1cccc(Cl)c1)c1nc(-c2ccc3ncn(C)c3c2)no1 (centres undefined) | 827 s |
| Cc1ccccc1-c1nc(-c2ccc3nncn3c2)no1 | 872 s |
| COc1ccccc1N1C(=O)c2cccc3cccc(c23)C1=O | 832 s |
| O=C(NC1CCCCC1)c1ccc(CN2C(=O)C3CCCN3C(=O)c3ccccc32)cc1 (centres undefined) | 770 s |

| Compound | RP-LC retention time |
| --- | --- |
| COc1ccc(NC(=O)c2cc(NC(=O)C3CCC3)cc3nc(C)ccc23)cc1OC | 640 s |
| Cn1c(C2CCN(C(=O)c3cccc(Cl)c3)C2)nc2cccnc21 (centres undefined) | 688 s |
| COCCCNC(=O)Cn1cnc2onc(-c3ccc(Cl)cc3)c2c1=O | 792 s |
| Cc1ccccc1C(=O)NCCc1nc2cccnc2n1CC(C)C | 717 s |
| CC(C)(O)CC[C@@H](O)[C@@](C)(O)[C@H]1CC[C@@]2(O)C3=CC(=O)[C@@H]4C[C@@H](O)[C@@H](O)C[C@]4(C)[C@H]3CC[C@]12C | 607 s |
| CCOc1ccccc1NC(=O)CSc1nnc(-c2cccnc2)o1 | 730 s |
| C=Cc1ccc(CN2CCCN(c3ncccc3-c3nc(CC)no3)CC2)cc1 | 722 s |
| COc1ccc(Nc2c(-c3ccc(N4CCOCC4)cc3)nc3ncccn23)cc1 | 654 s |
| Cc1n[nH]c(C)c1CNC(=O)C1CCN(C(=O)c2ncn3c2COC(c2ccc(F)cc2)C3)CC1 (centres undefined) | 627 s |
| Cc1ccc(CNC(=O)Cn2c(=O)c3cc(-c4cccs4)nn3c3ncccc32)cc1 | 868 s |
| CC(=O)c1ccc(NC(=O)CCSc2ccc(Cl)cc2)cc1 | 887 s |
| CCSc1nnc(NC(=O)CSc2nccn2-c2ccc(OC)cc2OC)s1 | 682 s |
| CC(C)NC(=O)c1ccc2c(c1)NC(=O)C1CCCCN21 (centres undefined) | 692 s |
| CCN(C(=O)c1cc2c(=O)n(C)c(=O)n(C)c2s1)c1ccc(OC)cc1 | 801 s |
| COc1ccc(NC2CS(=O)(=O)CC2O)cc1 (centres undefined) | 592 s |
| CC(=O)Nc1ccc(-n2cnc(C(=O)NCc3ccc(F)cc3)c2)nc1 | 681 s |
| CCOC(=O)c1c(C)c(CCC(=O)NCCN2CCOCC2)c(C)n1C | 622 s |
| Cc1ccc(NC(=O)N2CCc3nc(-c4ccccc4)ncc3C2)c(C)c1 | 952 s |
| Cc1nn(C(C)C(=O)NC2CCC(C)CC2)c(=O)c2nn(-c3ccccc3)c(C)c12 (centres undefined) | 962 s |
| CCc1nnc(-c2nnc(N(CC)CC)c3ccccc23)o1 | 859 s |
| COc1cccc(CC(=O)N2CCCC2c2cc(C)on2)c1 (centres undefined) | 757 s |
| O=C(c1cc(-c2ccncc2)n[nH]1)N1CCCC(C(=O)N2CCN(C(=O)c3ccco3)CC2)C1 (centres undefined) | 556 s |
| CCCN1C(=O)c2cc(S(=O)(=O)Nc3cc(F)cc(F)c3)ccc2Oc2cccnc21 | 1080 s |

| Compound | RP-LC retention time |
| --- | --- |
| O=C(NCCc1nc2ccccc2n1CC(=O)N1CCCC1)c1cccnc1 | 566 s |
| Cc1ccccc1CN1CCN(CC(=O)NC2CCN(Cc3ccccc3)CC2)C(=O)C1=O | 633 s |
| Cc1nn(CC(=O)NCCCN2CCCC2=O)c(=O)c2cc(-c3ccccc3)nn12 | 684 s |
| Cc1ccc(CNC(=O)C2CCN(S(=O)(=O)c3cc(-c4noc(C)n4)cs3)CC2)cc1 | 702 s |
| O=C(CSCc1ccccc1)NCC1(c2cccs2)CCOCC1 | 819 s |
| COCCCNC(=O)N1CCCN(C2=NS(=O)(=O)C(c3ccc(F)cc3)=C2C)CC1 | 709 s |
| COc1ccc(OC)c(NC(=O)N2CCCn3nc(-c4cccs4)cc3C2)c1 | 867 s |
| COc1ccc(C2CC(=O)N(c3ccc(C)c(Cl)c3)C(=O)C2)cc1OC | 652 s |
| CC1CN(c2ccc(F)cc2)c2nc3c(c(=O)n(CC(=O)O)c(=O)n3C)n2C1 (centres undefined) | 729 s |
| COc1ccccc1NC(=O)C1C(=O)NC2(C)CC1c1ccccc1O2 (centres undefined) | 905 s |
| O=S(=O)(Nc1ccc(Cn2cncn2)cc1)c1ccc2c(c1)CCCC2 | 786 s |
| CC(C)C(NC(=O)c1ccc(F)c(Cl)c1)C(=O)Nc1nc2ccccc2[nH]1 (centres undefined) | 756 s |
| NC(=O)Cn1cnc2c(-c3ccc(F)cc3)nsc2c1=O | 713 s |
| CC(Cc1ccco1)NC(=O)c1cc(S(=O)(=O)N2CCCCC2)ccc1Cl (centres undefined) | 967 s |
| COc1cccc(CNC(=O)C2(C)CCCN(C(=O)Nc3cc(Cl)ccc3OC)C2)c1 (centres undefined) | 990 s |
| Cc1ccc(CN2CCN(C3CCN(C(=O)NCc4ccc(F)cc4)CC3)C(=O)C2=O)cc1 | 767 s |
| CC(=O)N1CCc2cc(N3CC(C(=O)NCC(C)C)CC3=O)ccc21 (centres undefined) | 643 s |
| O=C(CCc1ccccc1)NCCc1c[nH]c2ccc(Cl)cc12 | 895 s |
| CCc1nc2cc(N3CCC(C(=O)NCc4ccccc4F)CC3)cnc2nc1CC | 840 s |
| CC(NC(=O)c1ccco1)c1nc2ccccc2n1CC(=O)N1CCOCC1 (centres undefined) | 586 s |
| Cn1c(=O)c(N2CCCC(C(=O)NCc3ccco3)C2)nc2cccnc21 (centres undefined) | 788 s |
| CC(=O)C1=C(C)N(Cc2ccccc2)C(=O)C1(NC(=O)C1CCCCC1)C(F)(F)F (centres undefined) | 1020 s |
| COc1ccc(N2CCN(c3cc(SCC(=O)Nc4ccc(F)cc4C)ncn3)CC2)cc1 | 959 s |

| Compound | RP-LC retention time |
| --- | --- |
| CC(C)CCNC(=O)C1Cn2cccc2C(=O)N1CC(C)C (centres undefined) | 799 s |
| Cn1cc(C(=O)N2CC(n3cc(COc4ccc(F)cc4)nn3)C2)cn1 | 641 s |
| CCNS(=O)(=O)c1cc(-c2nnc(-c3ccc(OC)c(OC)c3)o2)ccc1C | 833 s |
| CCOc1cc(=O)n2c(c1C(=O)NCCCN1CCCCC1)CCCCC2 | 568 s |
| O=C(Cn1c(C(=O)NCc2ccc(F)cc2F)cccc1=O)NC1CCCC1 | 868 s |
| CCc1ccc(Oc2cc(N3CCC(C(=O)NCCCOC(C)C)CC3)ncn2)cc1 | 903 s |
| COc1cccc(CNC(=O)C2CCCN(c3cc(=O)n(C)c(=O)n3C)C2)c1 (centres undefined) | 670 s |
| Cc1ccc(NC(=O)c2ccc3[nH]c4c(c3c2)CN(C(=O)C2CCC2)CC4)cc1 | 864 s |
| COC(=O)c1scc(C)c1NC(=O)C(C)NC(C)C (centres undefined) | 618 s |
| Cc1ccc(-c2nc3ncc(C#N)c(N)n3n2)cc1 | 707 s |
| O=C(CCc1nnc2c3cc(-c4ccccc4)nn3ccn12)N1CCN(C2CCCCC2)CC1 | 628 s |
| Cc1ccc(Cn2c(=O)n(CCNC(=O)c3ccoc3)c3ncccc32)cc1 | 760 s |
| CCOC(=O)c1c(C)oc2nc(C)nc(NCc3ccc(OC)cc3OC)c12 | 1140 s |
| CCOc1ccc(NC(=O)C(C)C2CCN(C(=O)Nc3ccc(Cl)cc3)CC2)cc1 (centres undefined) | 942 s |
| Cc1nn(C(C)C(=O)NCCN(C)Cc2ccccc2)c(=O)c2c(C)n(-c3ccccc3)nc12 (centres undefined) | 686 s |
| Cn1nc(C(=O)Nc2onc3c2CSC3)ccc1=O | 585 s |
| O=C(CSc1ncnc2c1[nH]c1ccc(Br)cc12)NC1CCCCC1 | 957 s |
| c1ccc(-c2nc3nccc(-c4ccccn4)n3n2)cc1 | 820 s |
| Cc1ccc(-c2noc(-c3ccccc3S(=O)(=O)Nc3ccc(S(N)(=O)=O)cc3)n2)cc1 | 933 s |
| CN1CCN(C(=O)Cn2c(-c3cccs3)cc3ccccc32)CC1 | 671 s |
